Laboratory results as given in ChEMBL document CHEMBL1201862, “PubChem BioAssay data set” (2004).
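A five-concentration, 48-hour dose response in 96-well plates underlies each endpoint, interpolated linearly between surrounding concentrations. GI50: concentration for 50% inhibition of growth.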 Calls of active or inactive are those of the source. Rule as the data show it: active = GI50 up to about 1.1 µM and inactive = higher.

Experiments:
Experiment in all cases: NCI-60 cell line screen, 48 h
Malme-3M = tested on: Malme-3M
786-0 = tested on: 786-0
SF-539 = tested on: SF-539
SK-MEL-28 = tested on: SK-MEL-28
HCT-116 = tested on: HCT-116
KM-20L2 = tested on: KM-20L2
OVCAR-8 = tested on: OVCAR-8
SN12C = tested on: SN12C
SR = tested on: SR
NCI-H23 = tested on: NCI-H23
OVCAR-3 = tested on: OVCAR-3
HCC 2998 = tested on: HCC 2998
SNB-75 = tested on: SNB-75
LOX IMVI = tested on: LOX IMVI
SW-620 = tested on: SW-620
K562 = tested on: K562

Measured: GI50

O=C(O)CSc1nnc(COc2ccccc2)n1-c1ccccc1
inactive: Malme-3M > 100 µM | 786-0 > 100 µM | SF-539 > 100 µM | SK-MEL-28 > 100 µM | HCT-116 > 100 µM | KM-20L2 > 100 µM | OVCAR-8 > 100 µM | SN12C > 100 µM | SR > 100 µM | NCI-H23 > 100 µM | OVCAR-3 > 100 µM | HCC 2998 > 100 µM | SNB-75 > 100 µM | LOX IMVI > 100 µM

O=C(CO[N+](=O)[O-])OC/C=C/c1ccccc1
inactive: Malme-3M > 100 µM | 786-0 > 100 µM | SF-539 > 100 µM | HCT-116 > 100 µM | KM-20L2 > 100 µM | SW-620 > 100 µM | OVCAR-8 > 100 µM | SN12C > 100 µM | SR > 100 µM | NCI-H23 > 100 µM | OVCAR-3 > 100 µM | HCC 2998 > 100 µM | K562 > 100 µM | SNB-75 > 100 µM | LOX IMVI > 100 µM

Cc1nnc(N/N=C2/C(=O)Nc3c(Cl)cc(Cl)cc32)n1N
inactive: Malme-3M > 100 µM | 786-0 > 100 µM | SF-539 > 100 µM | SK-MEL-28 > 100 µM | HCT-116 > 100 µM | KM-20L2 > 100 µM | SW-620 > 100 µM | OVCAR-8 > 100 µM | SN12C > 100 µM | SR 73.8 µM | NCI-H23 > 100 µM | OVCAR-3 > 100 µM | HCC 2998 > 100 µM | K562 > 100 µM | LOX IMVI > 100 µM

COc1ccc2[nH]c3c(C)cc([N+](=O)[O-])c(C)c3c2c1
inactive: Malme-3M 28.6 µM | 786-0 21.8 µM | SF-539 23.7 µM | SK-MEL-28 24.7 µM | HCT-116 17.9 µM | KM-20L2 47.5 µM | SW-620 21.7 µM | OVCAR-8 23 µM | SN12C 31.3 µM | SR 17.7 µM | NCI-H23 22.6 µM | OVCAR-3 37.8 µM | HCC 2998 25.4 µM | K562 18.4 µM | SNB-75 20.4 µM

CC1CC[C@@]23CCC4(C)[C@@](C=CC5[C@@]6(C)CCC(=O)C(C)(C)C6CC[C@]54C)(OC2=O)[C@@H]3[C@H]1C (some centres undefined)
inactive: Malme-3M 20.9 µM | 786-0 24.3 µM | SF-539 24.5 µM | SK-MEL-28 20.4 µM | HCT-116 6.68 µM | KM-20L2 15.4 µM | SW-620 30.8 µM | OVCAR-8 18.6 µM | SN12C 20.2 µM | SR 6.08 µM | NCI-H23 11.9 µM | OVCAR-3 11.9 µM | K562 6.3 µM | SNB-75 23.6 µM | LOX IMVI 13.8 µM

COc1cccc(/C=C/c2cc(OC)c(OC)c(OC)c2)c1
inactive: Malme-3M 34.8 µM | 786-0 30.5 µM | SF-539 24.4 µM | SK-MEL-28 38.5 µM | HCT-116 33 µM | KM-20L2 19.3 µM | SW-620 50.4 µM | OVCAR-8 55.6 µM | SN12C 52.2 µM | SR 35.1 µM | NCI-H23 30.3 µM | OVCAR-3 26.8 µM | HCC 2998 > 100 µM | K562 33.3 µM | SNB-75 18.5 µM

COCC(O)Cn1ccnc1[N+](=O)[O-] (centres undefined) [MISONIDAZOLE]
inactive: Malme-3M > 100 µM | 786-0 > 100 µM | SF-539 > 100 µM | SK-MEL-28 > 100 µM | HCT-116 > 100 µM | KM-20L2 > 100 µM | SW-620 > 100 µM | OVCAR-8 > 100 µM | SN12C > 100 µM | SR > 100 µM | NCI-H23 > 100 µM | OVCAR-3 > 100 µM | HCC 2998 > 100 µM | K562 > 100 µM | LOX IMVI > 100 µM
